In US20190084939A1, “ANALOGS OF FEXARAMINE AND METHODS OF MAKING AND USING” (Salk Institute for Biological Studies, priority 2014, published 2019):
“Also recorded” adds a separate entry of the source.

Columns and labels:
Human FXR full length = biological target: T1, Human FXR full length (Homo sapiens, UniProt Q96RI1); assay: FXR activity screen, luciferase reporter in transfected CV-1 cells; type: cell-based; conditions: fexaramine control in the retest; read-out: Fex EC50
T1 construct: Human FXR full length and RXR full length was obtained from Ronald Evans' laboratory; expressed in transfected cells; host or cells: CV-1 cells
T1 sequence (Q96RI1 1-476 isoform Q96RI1-1): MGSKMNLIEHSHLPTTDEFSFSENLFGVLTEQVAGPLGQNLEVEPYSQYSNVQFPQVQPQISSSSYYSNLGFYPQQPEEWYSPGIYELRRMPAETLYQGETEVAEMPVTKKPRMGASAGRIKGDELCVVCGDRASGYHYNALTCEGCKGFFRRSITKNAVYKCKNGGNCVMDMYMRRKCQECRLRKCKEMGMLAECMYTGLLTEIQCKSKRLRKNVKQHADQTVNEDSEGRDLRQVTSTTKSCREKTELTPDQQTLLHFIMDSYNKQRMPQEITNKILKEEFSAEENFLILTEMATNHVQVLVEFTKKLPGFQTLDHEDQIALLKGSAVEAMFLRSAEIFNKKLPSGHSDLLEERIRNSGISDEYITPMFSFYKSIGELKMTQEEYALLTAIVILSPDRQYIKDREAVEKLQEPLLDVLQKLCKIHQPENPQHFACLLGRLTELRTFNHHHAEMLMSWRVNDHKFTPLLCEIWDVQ
T1 sequence (P19793 1-462 partner): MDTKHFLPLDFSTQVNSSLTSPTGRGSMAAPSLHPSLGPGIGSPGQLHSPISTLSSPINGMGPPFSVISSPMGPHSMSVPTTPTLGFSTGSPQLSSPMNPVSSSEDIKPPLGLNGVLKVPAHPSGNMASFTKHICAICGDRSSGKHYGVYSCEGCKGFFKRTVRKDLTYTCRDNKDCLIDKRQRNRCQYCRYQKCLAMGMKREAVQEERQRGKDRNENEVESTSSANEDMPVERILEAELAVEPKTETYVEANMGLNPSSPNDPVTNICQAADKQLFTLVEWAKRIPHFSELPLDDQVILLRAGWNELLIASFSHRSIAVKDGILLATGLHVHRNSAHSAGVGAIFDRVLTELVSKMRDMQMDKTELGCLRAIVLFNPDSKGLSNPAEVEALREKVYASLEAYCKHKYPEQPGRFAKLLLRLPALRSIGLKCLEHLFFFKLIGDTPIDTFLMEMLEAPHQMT
Procedure, shortened: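 CV-1 cells in charcoal-stripped serum, transfected with full-length human FXR, RXR, FXRE-luciferase reporter and β-Gal; 48 h expression, then 24 h compound (0.001–100 μM, quadruplicate, 1:1000 DMSO dilution). Luciferase normalized to β-galactosidase; fold induction vs untreated, efficacy relative to fexaramine, EC50 by non-linear regression.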

ApcMin/+ mice = assay: ApcMin/+ colon cancer mouse model; type: in vivo
Protocol: The farnesoid X receptor (FXR) is a bile acid activated nuclear receptor widely expressed through the body. The ability of the intestinal-specific FXR ligand fexaramine to inhibit the progression of colon cancer in mice with a heterozygote mutation for the Apc gene (ApcMin/+ mice on a C57B6 background obtained from Jackson Laboratories) was determined.
5 week old ApcMin/+ mice (13-15 males per group receiving a standard diet, a model for colorectal and intestinal cancer) were treated with vehicle (corn oil) or fexaramine (FEX, 100 mg/kg in corn oil) by oral gavage, three times a week for 23 weeks. Mice body weight and food-intake were measured daily. At the end of the treatment regimen, surviving animals were sacrificed by cervical dislocation and the entire intestinal tract was immediately removed and washed with cold phosphate-buffered saline.
At the completion of the treatment, the colons were removed, flushed with PBS, fixed as “Swiss-rolls” in 4% paraformaldehyde at 4° C. overnight, and paraffin-embedded. Sections (5 μm) were cut stepwise (200 μm) through the complete block and stained with H&E. Tumor counts were performed blinded by a trained pathologist. To determine proliferation rates, mice were injected i.p. with 100 mg/kg of BrdU 2.5 hours prior to sacrifice and paraffin sections stained using a BrdU-in situ detection kit. The extent of apoptosis was determined by TUNEL assay using the ApoAlert DNA fragmentation assay kit. BrdU- and TUNEL-positive cells were counted by an investigator blinded to the genotype. For immunohistochemistry, antigen retrieval was performed (Vector Lab H3300) and then RTU Vectastain Universal Elite ABC Kit and NovaRED or VIP substrate (all from Vector Lab) were used, following the manufacturer's instructions.
Statistical analysis were performed in collaboration with the Cancer Prevention-Biostatistics department at the University of California at San Diego Cancer Center. This is part of an ongoing collaboration and has previously been applied to the APC^Min model of colorectal cancer as well as to several other cancer models including prostate and breast cancer. The volume of polyps was calculated considering them as hemispheres (½×[…] π r^3). All other evaluations were performed in the distal tract of the small intestine because ApcMin/+ mice develop the majority of tumors in the small intestine.

SMILES: COC(=O)/C=C/c1cccc(N(Cc2ccc(-c3ccc(N(C)C)cc3)cc2)C(=O)C2CCCCC2)c1 [Fexaramine, fexaramine]
- EC50 (Human FXR full length): 63 nM
- colon cancer-induced cachexia (weight loss) (ApcMin/+ mice; 100 mg/kg oral gavage three times a week): resistant to colon cancer-induced cachexia
- serum total cholesterol and triglyceride levels (ApcMin/+ mice; after 23 weeks): reduces circulating triglycerides; also recorded: reduced
- tumor size in duodenum, jejunum, ileum and throughout the intestine (ApcMin/+ mice; after 23 weeks): dramatic reduction in tumor size
- tumors in colon sections (ApcMin/+ mice; after 23 weeks): No tumors were observed
- reduction in total tumor burden versus vehicle (ApcMin/+ mice; after 23 weeks, p 0.04): 20%
- reduction in tumor burden in the ileum (ApcMin/+ mice; after 23 weeks, p 0.08): 25%
- reduction in tumor burden in the jejunum (ApcMin/+ mice; after 23 weeks, p 0.08): 11.75%
- tumor burden in the duodenum (ApcMin/+ mice; after 23 weeks, p 0.73): no change in tumor burden
- survival at 25 weeks (ApcMin/+ mice; vehicle 20%): 80%
- body weight change (ApcMin/+ mice; vehicle-treated mice lose ˜10%): maintain their weight
